According to US20230130925A1 (priority 2020, published 2023):
Read-outs that look alike come from different tables or passages of the source.

Experiments:
SARS-cov2 = conditions: person

**Q.** `Cc1nc(Nc2ncc(C(=O)Nc3c(C)cccc3Cl)s2)cc(N2CCN(CCO)CC2)n1` [Dasatinib, reference compound] was tested. Which tolerability (Influenza A; human, in vivo, po) did it give?
**A.** tolerates the medication well

**Q.** Which results are given for “Tocilizumab: anti-IL-6 receptor antibody molecule”?
**A.** clinical course (SARS-cov2; COPD and diabetes, O2 saturation 87%, Tocilizumab 8 mg/Kg by auto-injector): stabilization; patient's condition (SARS-cov2; fever >38.5° C., O2 saturation 92%, Tocilizumab 8 mg/Kg intravenous infusion): condition stabilizes initially; tolerability (SARS-cov2; Tocilizumab 8 mg/Kg by auto-injector): tolerates the medication well; renal and neurological status (Influenza A; person with ARDS and shock, after Tocilizumab 600 mg i.v.): continues to have renal and neurological deterioration

B1: Sarilumab: anti-IL-6 receptor antibody molecule (antibody, chains of the INN, looked up, V domains shown)
VH: EVQLVESGGGLVQPGRSLRLSCAASRFTFDDYAMHWVRQAPGKGLEWVSGISWNSGRIGYADSVKGRFTISRDNAENSLFLQMNGLRAEDTALYYCAKGRDSFDIWGQGTMVTVSS
VL: DIQMTQSPSSVSASVGDRVTITCRASQGISSWLAWYQQKPGKAPKLLIYGASSLESGVPSRFSGSGSGTDFTLTISSLQPEDFASYYCQQANSFPYTFGQGTKLEIK
**Q.** B1 was tested. Which tolerability (SARS-cov2; COPD and hypertension, O2 saturation 89%, Sarilumab 200 mg subcutaneous, self-administered) did it give?
**A.** tolerates the medication well
